Data taken from patent US20240207141A1, “PEPTIDE HAVING REPARATIVE DENTIN-REGENERATING ACTIVITY AND USE THEREOF” (SEOUL NATIONAL UNIVERSITY R&DB FOUNDATION, priority 2022, published 2024).
No end group written: not given here.

Tests used:
[1] = tested on: human dental pulp cells (hDPCs); test: Cell viability assay of hDPCs (water-soluble tetrazolium salt); assay type: cell-based; details: 50, 100 and 200 μg/ml, 24 or 48 hours
Method: Human dental pulp cells (hDPCs) were collected from the patient's third molars after patient consent and approval from the Institutional Review Board (IRB) of Seoul National University Dental Hospital (IRB No. CRI19007) were obtained. The hDPCs were passaged three times in Dulbecco's modified Eagle's medium (DMEM; Gibco BRL, Carlsbad, CA, USA) supplemented with 10% fetal bovine serum (FBS) and 1% penicillin/streptomycin (10,000 U/ml penicillin, 10,000 μg/ml streptomycin; Gibco, Paisley, Scotland). In order to induce odontogenic differentiation, the hDPCs were then cultured using DMEM supplemented with 10% FBS, 1% penicillin/streptomycin, 10 mM β-glycerophosphate, 200 μM ascorbic acid, and 0.1 μM dexamethasone.
The viability of hDPCs in the presence of VnP-16 was investigated using an Cytox Cell Viability Assay Kit (DoGenBio, Seoul, Korea). A 96-well culture plate was treated with 50, 100 and 200 μg/ml VnP-16, and then 1.5×10^4 cells were plated into each well, and incubated for 24 or 48 hours at 37° C. The water-soluble tetrazolium salt reagent ([…] ) was added to each well, and the plate was incubated at 37 °C for 2 hours. Finally, absorbance at 450 nm was measured using a microplate reader (Epoch2, Bio-Tek, VT, USA).

rat pulp exposure model = test: Rat tooth pulp exposure model, histologic analysis (H&E) of inflammatory response and hard tissue formation; assay type: in vivo
Method: Seven-week-old male Sprague-Dawley rats were purchased from the OrientBio after approval from the Institutional Animal Care and Use Committee of Seoul National University (No. SNU-180109-2) was obtained. […] Resin cement (Rely X U-200, 3M ESPE, MN, USA) was used as the final restoration in all experimental groups.
Specifically, the rats were anesthetized by the intraperitoneal injection of 31.25 mg/kg tiletamine/zolazepam and 8.75 mg/kg xylazine. After ascertaining the general anesthesia, the oral cavity was opened with a customized wire to expose the lower first molars. After cleaning and sanitizing with both 3% H2O2 and a 10% Betadine-soaked cotton, the center of the occlusal surface was carefully punctured using a #¼ round bur (0.5 mm in diameter) with a high-speed hand piece. MTA (ProRoot MTA, Dentsply Sirona, York, PA, USA) was mixed according to the manufacturer's instruction and the mixture was applied to the exposed pulp. […] The punctured sites were covered with resin cement after the application of MTA or the collagen sponge. In the Resin group, resin cement was directly applied to the punctured site. The sharp cusp tips of the upper molar and lower first molar were grinded using a football shaped diamond bur in order to prevent tooth fractures by mastication.
Rats were histologically analyzed 2 and 4 weeks after pulp exposure surgery. Whole mandibles were fixed f in 4% paraformaldehyde at 4° ° C. for 24 hours. For histological staining, the specimens were decalcified with 12% EDTA for 4 weeks and embedded in paraffin. […] Each sample was evaluated and scored for inflammatory response and hard tissue formation according to the criteria presented in [Table 2] below.

[2] = tested on: human dental pulp cells (hDPCs); test: hDPCs cell spreading assay on coated plates; assay type: cell-based; details: immobilized on plates (vitronectin 0.26 μg/cm2, peptides 10.5 μg/cm2), 3 hours
Method: In addition, for the cell spreading assay, hDPCs (3×10^4 cells/250 μL) were incubated at 37° ° C. for 3 hours on each peptide-coated plate in the same manner as above. The attached cells were fixed with 10% formalin and stained with 0.5% crystal violet for 1 hour. Then, the plates were gently washed three times with PBS, and then the degree of cell spreading was assessed by measuring the surface area of the cells using Image Pro Plus software (version 4.5; Media Cybernetics, Silver Spring, MD, USA).

[3] = tested on: human dental pulp cells (hDPCs); test: Scratch wound migration assay; assay type: cell-based; details: vitronectin 1.25 μg/ml, VnP-16 50 μg/ml; 0, 24 and 48 hours
Method: In order to evaluate the migration ability and wound healing ability of hDPCs, the scratch assay was used. The hDPCs were plated in a 24-well plate and incubated in complete medium until 80% confluence. Then, the cells were passaged in serum-free medium for 24 hours, and then stimulated by scratching with a 200 μl pipette tip. After PBS washing to remove cell debris, the cultures were treated with vehicle (10% DMSO), vitronectin (1.25 μg/ml), SP (50 μg/ml), or VnP-16 (50 μg/ml). Pictures were taken using a microscope (Nikon, Tokyo, Japan) at 0, 24 and 48 hours after treatment. The data were analyzed using Image Pro Plus software (version 4.5; Media Cybernetics, MD, USA) to compare the percentage of scratch closure from 0 hour to 48 hours time point. The percentage of: scratch closure was calculated by the following equation: Scratch closure %=[A (0)−A(t)/A(0)]×100. Wherein the scratch area at time zero is “A (0)”; and the area after the incubation time (t) is “A(t)”. The scratch wound migration assay was performed in triplicate.

[4] = tested on: human dental pulp cells (hDPCs); test: hDPCs cell attachment assay on coated plates; assay type: cell-based; details: immobilized on plates (vitronectin 0.26 μg/cm2, peptides 10.5 μg/cm2), 1 hour
Method: First, for the cell attachment assay, 48-well culture plates were coated with human plasma vitronectin (0.26 μg/cm2) at 4° C. for 24 hours. The SP and VnP-16 (10.5 μg/cm2) were also coated on the plates by drying at room temperature for 24 hours. […] The peptide-coated plates were blocked with 1% heat-inactivated bovine serum albumin (BSA) in phosphate-buffered saline (PBS) at 37° ° C. for 1 hour, and then washed with PBS. The hDPCs (5×10^4 cells/250 μL) were added to each plate and incubated at 37° ° C. for 1 hour, and then unattached cells were removed by rinsing the plates twice with PBS. The attached cells were fixed with 10% formalin for 15 minutes and stained with 0.5% crystal violet for 1 hour. The plates were then gently washed three times with double-distilled water. Afterwards, the contents of each well were solubilized in 2% sodium dodecyl sulfate for 5 minutes, and then absorbance at 570 nm was measured using a microplate reader.

RVYFFKGKQYWE-NH2 [VnP-16]
cytotoxicity to hDPCs (cell viability) [1]: no cytotoxicity

FVWRQFYKYEKG [SP, scrambled peptide used as a negative control]
newly formed mineralized tissues at the pulp-exposed sites (rat pulp exposure model; 2 weeks after pulp exposure surgery): hardly detected
hard tissue formation (rat pulp exposure model; 4 weeks after pulp exposure surgery): showed hard tissue formation
quality of the reparative dentin (rat pulp exposure model; 4 weeks after pulp exposure surgery, H&E): non-tubular and large cell-inclusion structure

B1: vitronectin: human plasma vitronectin purchased from Millipore, used as a positive control (protein, UniProt P04004 20-478, looked up)
Vitronectin: DQESCKGRCTEGFNVDKKCQCDELCSYYQSCCTDYTAECKPQVTRGDVFTMPEDEYTVYDDGEEKNNATVHEQVGGPSLTSDLQAQSKGNPEQTPVLKPEEEAPAPEVGASKPEGIDSRPETLHPGRPQPPAEEELCSGKPFDAFTDLKNGSLFAFRGQYCYELDEKAVRPGYPKLIRDVWGIEGPIDAAFTRINCQGKTYLFKGSQYWRFEDGVLDPDYPRNISDGFDGIPDNVDAALALPAHSYSGRERVYFFKGKQYWEYQFQHQPSQEECEGSSLSAVFEHFAMMQRDSWEDIFELLFWGRTSAGTRQPQFISRDWHGVPGQVDAAMAGRIYISGMAPRPSLAKKQRFRHRNRKGYRSQRGHSRGRNQNSRRPSRATWLSLFSSEESNLGANNYDDYRMDWLVPATCEPIQSVFFFSGDKYYRVNLRTRRVDTVDPPYPRSIAQYWLGCPAPGHL
cell spreading of hDPCs [2]: strongly promoted cell attachment and spreading
wound migration of hDPCs (scratch closure) [3]: strongly promoted the wound migration
cell attachment of hDPCs [4]: strongly promoted cell attachment and spreading
